The source of these data is patent publication US20250099448A1, “HETEROCYCLIC COMPOUNDS” (Hoffmann-La Roche Inc., priority 2022, published 2025).

This test has as its target T1, MAGL protein (Homo sapiens, UniProt Q99685).
T1 sequence (Q99685 1-303): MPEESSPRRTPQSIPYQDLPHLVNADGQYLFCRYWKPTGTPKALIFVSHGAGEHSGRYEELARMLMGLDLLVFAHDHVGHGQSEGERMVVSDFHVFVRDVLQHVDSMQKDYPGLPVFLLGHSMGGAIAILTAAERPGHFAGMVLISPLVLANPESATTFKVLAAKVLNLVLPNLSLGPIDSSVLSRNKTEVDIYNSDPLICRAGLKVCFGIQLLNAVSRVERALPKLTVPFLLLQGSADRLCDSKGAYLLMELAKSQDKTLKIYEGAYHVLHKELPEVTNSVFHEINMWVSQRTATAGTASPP
In words: 2-AG assay: MAGL inhibitory activity by hydrolysis of 2-arachidonoylglycerol to arachidonic acid, followed by mass spectrometry. As to conditions: 8 μM 2-arachidonoylglycerol, 15 min preincubation, 30 min reaction at RT, RapidFire MS readout. It is filed as biochemical. How it is done: Compounds of formula (I) were profiled for MAGL inhibitory activity by determining the enzymatic activity by following the hydrolysis of the natural substrate 2-arachidonoylglycerol (2-AG) resulting in arachidonic acid, which can be followed by mass spectrometry. This assay is hereinafter abbreviated “2-AG assay”. The 2-AG assay was carried out in 384 well polypropylene assay plates. Compound dilutions were made in 100% DMSO in a polypropylene plate in 3-fold dilution steps to give a final concentration range in the assay from 12.5 μM to […]. Compound dilutions were added to MAGL protein in assay buffer (50 mM TRIS, 1 mM EDTA, 0.01% (v/v) Tween-20, 2.5% (v/v) DMSO). After shaking, the plate was incubated for 15 min at RT. To start the reaction, 2-arachidonoylglycerol in assay buffer was added. The final concentrations in the assay was […] for MAGL protein and 8 μM 2-arachidonoylglyerol. After shaking and 30 min incubation at RT, the reaction was quenched by the addition of two assay volumes of acetonitrile containing 4 μM of d8-arachidonic acid. The amount of arachidonic acid formed was traced by an online SPE system (Agilent Rapidfire) coupled to a triple quadrupole mass spectrometer. A C18 SPE cartridge (Agilent G9205A) was used in an acetonitrile/water liquid setup. The mass spectrometer was operated in negative electrospray mode following the mass transitions 303.1→259.1 for arachidonic acid and 311.1→267.0 for d8-arachidonic acid. The activity of the compounds was calculated based on the ratio of intensities [arachidonic acid/d8-arachidonic acid].

Take `N=S(=O)(c1cccc(CC2CC3(C2)CN(C(=O)N2CC4(CC(c5nnc(C6CC6)[nH]5)C4)C2)C3)c1)C(F)(F)F` (racemic) [compound 125]: it took 0.08 nM to reach half-maximal inhibition (IC50).

As for `N#Cc1cc(C(F)(F)F)ncc1OC1CCC2(C1)CN(C(=O)N1CC3(CC(c4nnc(C5CC5)[nH]4)C3)C1)C2` (racemic) [compound 154], the IC50 – broadly, the concentration that gives 50% inhibition – amounted to 3.5 nM.

Consider `CS(=O)(=O)c1ccc(OC2CCC3(C2)CN(C(=O)N2CC4(CC(c5nnc(C6CC6)[nH]5)C4)C2)C3)cc1C(F)(F)F` (racemic) [compound 155], for which the IC50 was found to be 1.99 nM.

Regarding `O=C(N1CC(c2ccc([C@H]3C[C@H](C(F)F)C3)cc2)C1)N1CC2(CC(c3nnc(C4CC4)[nH]3)C2)C1` (single isomer, unassigned) [Example 304, Trans-[6-(5-Cyclopropyl-4H-1,2,4-triazol-3-yl)-2-azaspiro[3.3]heptan-2-yl]-[3-[4-[3-(difluoromethyl)cyclobutyl]phenyl]azetidin-1-yl]methanone], the IC50 was determined as 0.18 nM.

`O=C(N1CC(c2ccc([C@H]3C[C@@H](C(F)F)C3)cc2)C1)N1CC2(CC(c3nnc(C4CC4)[nH]3)C2)C1` (single isomer, unassigned) [Example 305, cis-[6-(5-Cyclopropyl-4H-1,2,4-triazol-3-yl)-2-azaspiro[3.3]heptan-2-yl]-[3-[4-[3-(difluoromethyl)cyclobutyl]phenyl]azetidin-1-yl]methanone] yielded an IC50 of 0.07 nM.

With `O=C(N1CC(OCc2ccc(C(F)(F)F)cc2F)C1)N1CC2(CC(c3nnc([C@@H](O)C(F)(F)F)[nH]3)C2)C1` (single isomer, unassigned) [Example 388], the IC50 amounted to 410 nM.

Molecule `O=C(N1CC(OCc2ccc(C(F)(F)F)cc2F)C1)N1CC2(CC(c3nnc([C@H](O)C(F)(F)F)[nH]3)C2)C1` (single isomer, unassigned) [Example 389] gave an IC50 of 15.2 nM.

Consider `N=[S@](=O)(c1cccc(CC2CC3(C2)CN(C(=O)N2CC4(CC(c5nnc(C6CC6)[nH]5)C4)C2)C3)c1)C(F)(F)F` (single isomer, unassigned) [compound 126], for which the midpoint of inhibition, the IC50, lay at 0.06 nM.

On to `N=[S@@](=O)(c1cccc(CC2CC3(C2)CN(C(=O)N2CC4(CC(c5nnc(C6CC6)[nH]5)C4)C2)C3)c1)C(F)(F)F` (single isomer, unassigned) [compound 127], for which the IC50 stood at 0.06 nM.

`N=[S@@](=O)(c1ccc(CC2CC3(C2)CN(C(=O)N2CC4(CC(c5nnc(C6CC6)[nH]5)C4)C2)C3)cc1)C(F)(F)F` (single isomer, unassigned) [compound 128] came in with an IC50 of 0.16 nM.

For `N=[S@](=O)(c1ccc(CC2CC3(C2)CN(C(=O)N2CC4(CC(c5nnc(C6CC6)[nH]5)C4)C2)C3)cc1)C(F)(F)F` (single isomer, unassigned) [compound 129], the IC50 is 0.1 nM.

For the molecule `O=C(N1CC2(CCC(Cc3ncc(F)cc3F)C2)C1)N1CC2(CC(c3nnc(C4CC4)[nH]3)C2)C1` (single isomer, unassigned) [compound 148], the IC50 was determined as 0.17 nM.

As for `O=C(N1CC2(CCC(Cc3ncc(F)cc3F)C2)C1)N1CC2(CC(c3nnc(C4CC4)[nH]3)C2)C1` (single isomer, unassigned) [compound 149], the IC50 was determined as 0.39 nM.

`O=C(N1CC2(CCC(Cc3cnc(C(F)(F)F)cn3)C2)C1)N1CC2(CC(c3nnc(C4CC4)[nH]3)C2)C1` (single isomer, unassigned) [compound 150] yielded an IC50 of 0.82 nM. This IC50 lies about 2.1-fold higher than the previous one.

The molecule `O=C(N1CC2(CCC(Cc3cnc(C(F)(F)F)cn3)C2)C1)N1CC2(CC(c3nnc(C4CC4)[nH]3)C2)C1` (single isomer, unassigned) [compound 151] registered an IC50 of 0.51 nM. Against the preceding molecule, the IC50 is about 1.6-fold lower.

In turn, `O=C(N1CC(c2ccc(C3(C(F)(F)F)CC3)cc2)C1)N1CC2(CC(c3nnc([C@@H](O)C(F)(F)F)[nH]3)C2)C1` (single isomer, unassigned) [compound 229] returned an IC50 of 33.9 nM.

In the case of `O=C(N1CC(c2ccc(C3(C(F)(F)F)CC3)cc2)C1)N1CC2(CC(c3nnc([C@H](O)C(F)(F)F)[nH]3)C2)C1` (single isomer, unassigned) [compound 230], the midpoint of inhibition, the IC50, lay at 3.89 nM.

`O=C(N1CC(c2cnc(N3CC[C@@H](C(F)(F)F)C3)nc2)C1)N1CC2(CC(c3nc(C4CC4)n[nH]3)C2)C1` (single isomer, unassigned) [compound 265] yielded an IC50 of 4.38 nM.

The molecule `O=C(N1CC(c2cnc(N3CC[C@H](C(F)(F)F)C3)nc2)C1)N1CC2(CC(c3nc(C4CC4)n[nH]3)C2)C1` (single isomer, unassigned) [compound 266] had an IC50 of 2.93 nM.

On to `O=C(N1CC(c2ccc(N3CCC(O)(C(F)(F)F)C3)nc2)C1)N1CC2(CC(c3nnc(C4CC4)[nH]3)C2)C1` (single isomer, unassigned) [compound 270], for which the IC50 was 4.93 nM.

As to `O=C(N1CC(c2ccc(N3CCC(O)(C(F)(F)F)C3)nc2)C1)N1CC2(CC(c3nnc(C4CC4)[nH]3)C2)C1` (single isomer, unassigned) [compound 271], it took 2.73 nM to reach half-maximal inhibition (IC50). This IC50 lies about 1.8-fold lower than the previous one.

`O=C(N1CC(c2ccc(N3CCC(C(F)(F)F)CC3=O)cc2)C1)N1CC2(CC(c3nnc(C4CC4)[nH]3)C2)C1` (single isomer, unassigned) [compound 279] came in with an IC50 of 5.16 nM.

Molecule `O=C(N1CC(c2ccc(N3CCC(C(F)(F)F)CC3=O)cc2)C1)N1CC2(CC(c3nnc(C4CC4)[nH]3)C2)C1` (single isomer, unassigned) [compound 280] came in with an IC50 of 3.82 nM.

In the case of `N=[S@](=O)(c1ccc(CC2CC3(C2)CN(C(=O)N2CC4(CC(c5nnc(C6(N)CC6)[nH]5)C4)C2)C3)cc1)C(F)(F)F` (stereo in doubt) [Example 474, [6-[5-(1-aminocyclopropyl)-4H-1,2,4-triazol-3-yl]-2-azaspiro[3.3]heptan-2-yl]-[6-[[4-(trifluoromethyl-sulfonimidoyl)phenyl]methyl]-2-azaspiro[3.3]heptan-2-yl]methanone], half-maximal inhibition (IC50) was put at 4.59 nM. This IC50 and that of the molecule before are within 1.5-fold of each other.

In turn, `O=C(N1CC(c2ccc(NC3(C(F)(F)F)CC3)nc2)C1)N1CC2(CC(c3nnc(C4CC4)[nH]3)C2)C1` [Example 1, [6-(5-cyclopropyl-4H-1,2,4-triazol-3-yl)-2-azaspiro[3.3]heptan-2-yl]-[3-[6-[[1-(trifluoromethyl)cyclopropyl]amino]-3-pyridyl]azetidin-1-yl]methanone] registered an IC50 of 0.94 nM.

As for `O=C(N1CC2(CC(Cc3cnc(C(F)(F)F)cn3)C2)C1)N1CC2(CC(c3nnc(C4CC4)[nH]3)C2)C1` [Example 3], the IC50 came to 0.69 nM.

Regarding `O=C(N1CC2(CC(c3nnc(C4CCC4)[nH]3)C2)C1)N1CC2(CN(Cc3ccc(F)cc3F)C2)C1` [Example 158, [6-(5-cyclobutyl-4H-1,2,4-triazol-3 yl)-2-azaspiro[3.3]heptan-2-yl]-[6-[(2,4-difluorophenyl)methyl]-2,6-diazaspiro[3.3]heptan-2-yl]methanone], the IC50 came out at 150 nM. Against the preceding molecule, the IC50 is about 220-fold higher.

Molecule `COC(=O)c1ccccc1CN1CC2(C1)CN(C(=O)N1CC3(CC(c4nnc(C5CC5)[nH]4)C3)C1)C2` [Example 171, methyl 2-[[2-[6-(5-cyclopropyl-4H-1,2,4-triazol-3-yl)-2-azaspiro[3.3]heptane-2-carbonyl]-2,6-diazaspiro[3.3]heptan-6-yl]methyl]benzoate] displayed a 50% inhibitory concentration (IC50) of 9.21 nM. This IC50 is about 16-fold lower than that of the molecule before.

In turn, `O=C(O)c1ccccc1CN1CC2(C1)CN(C(=O)N1CC3(CC(c4nnc(C5CC5)[nH]4)C3)C1)C2` [Example 172, 2-[[2-[6-(5-cyclopropyl-4H-1,2,4-triazol-3-yl)-2-azaspiro[3.3]heptane-2-carbonyl]-2,6-diazaspiro[3.3]heptan-6-yl]methyl]benzoic Acid] returned an IC50 of 502 nM.

The molecule `O=C(N1CC2(CC(c3nnc(C4CC4)[nH]3)C2)C1)N1CC2(C1)CN(C(=O)C(F)(F)F)C2` [Example 217, 1-[2-[6-(5-cyclopropyl-4H-1,2,4-triazol-3-yl)-2-azaspiro[3.3]heptane-2-carbonyl]-2,6-diazaspiro[3.3]heptan-6-yl]-2,2,2-trifluoro-ethanone] showed an IC50 of 3580 nM. Compared with the last molecule, the IC50 is about 7.1-fold higher.

`O=C(N1CC(c2ccc(N3CCC4(COC4)C3)nc2)C1)N1CC2(CC(c3nnc(C4CC4)[nH]3)C2)C1` [Example 303, [6-(5-cyclopropyl-4H-1,2,4-triazol-3-yl)-2-azaspiro[3.3]heptan-2-yl]-[3-[6-(2-oxa-7-azaspiro[3.4]octan-7 yl)-3-pyridyl]azetidin-1-yl]methanone] yielded an IC50 of 6.31 nM.

`O=C(N1CC2(CC(c3nnc(C4CC4)[nH]3)C2)C1)N1CC(O)(c2ccc(N3CC(C(F)(F)F)C3)cc2)C1` [Example 306, [6-(5-Cyclopropyl-4H-1,2,4-triazol-3 yl)-2-azaspiro[3.3]heptan-2-yl]-[3-hydroxy-3-[4-[3-(trifluoromethyl)azetidin-1-yl]phenyl]azetidin-1 yl)methanone] showed an IC50 of 2.19 nM.
